Legend:
Assay in all cases: relative viability (nuclei count vs DMSO), 5 days (fraction); higher = more cells survive
[1] = compound: Cn1c(Nc2ccc(C(F)(F)F)cc2)nc2cc(Oc3ccnc(-c4ncc(C(F)(F)F)[nH]4)c3)ccc21 [RAF265] + Nc1nc2[nH]cc(CCc3ccc(C(=O)N[C@@H](CCC(=O)O)C(=O)O)cc3)c2c(=O)[nH]1 [Pemetrexed] (partner 0.2 µM)
Procedure, shortened: (§1)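 One day after seeding in 1536-well plates, lung cancer cell lines were dosed by pin tool. Dosing was either single-drug or a fixed anchor-drug dose plus five library-drug doses (not always all listed) in √10 steps. After 5 days, nuclei were stained in one fix-and-stain step and counted on 4× images, and relative viability is the nuclei count of treated wells over that of vehicle wells, given as the median of duplicate plates.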

[2] = compound: Cn1c(Nc2ccc(C(F)(F)F)cc2)nc2cc(Oc3ccnc(-c4ncc(C(F)(F)F)[nH]4)c3)ccc21 [RAF265] + CC1(C)CCC(c2ccc(Cl)cc2)=C(CN2CCN(c3ccc(C(=O)NS(=O)(=O)c4ccc(N[C@H](CCN5CCOCC5)CSc5ccccc5)c(S(=O)(=O)C(F)(F)F)c4)cc3)CC2)C1 [Navitoclax] (partner 0.5 µM)
Procedure, shortened: as §1

[3] = compound: Cc1ccc(-n2nc(C(C)(C)C)cc2NC(=O)Nc2ccc(OCCN3CCOCC3)c3ccccc23)cc1 [Doramapimod] + Cc1cc(Nc2cc(N3CCN(C)CC3)nc(Sc3ccc(NC(=O)C4CC4)cc3)n2)n[nH]1 [Tozasertib] (partner 0.1 µM)
Procedure, shortened: as §1

[4] = compound: Cc1ccc(-n2nc(C(C)(C)C)cc2NC(=O)Nc2ccc(OCCN3CCOCC3)c3ccccc23)cc1 [Doramapimod] + CC(C)C[C@H](NC(=O)[C@H](Cc1ccccc1)NC(=O)c1cnccn1)B(O)O [Bortezomib] (partner 0.002 µM)
Procedure, shortened: as §1

Row | Cell Line | relative viability ([1]; first compound 0.01 µM) | relative viability ([1]; first compound 0.03162 µM) | relative viability ([1]; first compound 0.1 µM) | relative viability ([1]; first compound 0.3162 µM) | relative viability ([1]; first compound 1 µM) | relative viability ([2]; first compound 0.01 µM) | relative viability ([2]; first compound 0.03162 µM) | relative viability ([2]; first compound 0.1 µM) | relative viability ([2]; first compound 0.3162 µM) | relative viability ([2]; first compound 1 µM) | relative viability ([3]; first compound 0.02 µM) | relative viability ([3]; first compound 0.06325 µM) | relative viability ([3]; first compound 0.2 µM) | relative viability ([3]; first compound 0.6325 µM) | relative viability ([3]; first compound 2 µM) | relative viability ([4]; first compound 0.02 µM) | relative viability ([4]; first compound 0.06325 µM) | relative viability ([4]; first compound 0.2 µM) | relative viability ([4]; first compound 0.6325 µM) | relative viability ([4]; first compound 2 µM)
1 | NCI-H2170 | 0.245 | 0.258 | 0.263 | 0.261 | 0.251 | 0.586 | 0.434 | 0.462 | 0.3 | 0.383 | 0.717 | 0.611 | 0.824 | 0.636 | 0.6 |  |  |  |  | 
2 | HCC-366 | 0.153 | 0.146 | 0.185 | 0.208 | 0.132 | 1.09 | 1.15 | 1.13 | 1.09 | 0.776 | 0.117 | 0.129 | 0.15 | 0.0878 | 0.0672 | 1.02 | 1 | 1.09 | 1.14 | 1.01
3 | NCI-H2347 | 0.392 | 0.371 | 0.406 | 0.446 | 0.351 | 1.03 | 0.786 | 0.864 | 0.456 | 0.467 | 0.552 |  | 0.565 | 0.587 | 0.555 |  | 0.72 | 1.19 | 1.07 | 0.963
4 | COR-L 105 | 1.27 | 0.941 | 1.31 | 0.714 | 0.685 | 0.853 | 0.878 | 0.668 | 0.685 | 0.339 | 0.409 | 0.342 | 0.376 | 0.35 | 0.365 | 0.848 | 0.772 | 0.959 | 0.807 | 0.779
5 | 201T | 0.352 | 0.316 | 0.344 | 0.311 | 0.313 | 1.23 | 1.2 | 1.23 | 1.27 | 1.28 | 0.914 | 0.918 | 0.935 | 1.05 | 0.906 | 1.16 | 1.16 | 1.09 | 1.29 | 1.16
6 | NCI-H2126 | 0.703 | 0.669 | 0.65 | 0.605 | 0.554 | 0.813 | 0.826 | 0.866 | 0.687 | 0.616 | 0.843 | 0.835 | 0.812 | 0.926 | 0.777 | 1.2 | 1.14 | 1.11 | 1.16 | 1.07
7 | LC-2-ad | 0.275 | 0.3 | 0.288 | 0.292 | 0.258 | 0.527 | 0.283 | 0.311 | 0.162 | 0.115 | 0.447 | 0.444 | 0.448 | 0.413 | 0.484 | 0.985 | 1.12 | 1.06 | 1.14 | 0.94
8 | NCI-H2085 | 1.09 | 0.768 | 0.938 | 0.806 | 0.903 | 1.17 | 1.12 | 1.16 | 1.27 | 1.09 | 0.882 | 0.913 | 0.852 | 0.84 | 0.796 | 1.03 | 1 | 0.952 | 1.06 | 0.945
9 | NCI-H358 | 0.159 | 0.165 | 0.151 | 0.149 | 0.147 |  |  |  |  |  | 0.0934 | 0.0925 | 0.101 | 0.105 | 0.109 |  |  |  |  | 
10 | H3255 | 0.569 | 0.609 | 0.54 |  | 0.569 | 0.563 | 0.47 | 0.695 | 0.0727 | 0.23 | 0.688 | 0.65 | 0.669 | 0.602 | 0.452 | 0.788 | 0.883 | 0.833 | 0.619 | 0.668
11 | NCI-H2228 | 0.325 | 0.353 | 0.303 | 0.297 | 0.268 | 0.741 | 0.971 | 0.903 | 0.945 | 0.726 | 0.263 | 0.296 | 0.258 | 0.263 | 0.242 | 0.952 | 0.966 | 1.11 | 1.06 | 0.758
12 | CAL-12T | 1.21 | 0.925 | 1.13 | 0.978 | 0.661 | 1.28 | 1.01 | 0.861 | 0.757 | 0.523 | 0.298 | 0.341 | 0.338 | 0.272 | 0.315 | 1.01 | 1.11 | 1.16 | 1 | 0.818
13 | A-427 | 1.06 | 0.939 | 1.03 | 0.678 | 0.468 | 0.929 | 0.678 | 0.96 | 0.579 | 0.272 | 0.248 | 0.216 | 0.218 |  | 0.189 | 0.907 | 1.05 | 1 |  | 1.12
14 | HARA | 0.269 | 0.275 | 0.239 | 0.218 | 0.259 | 1.15 | 1.05 | 1.1 | 1.21 | 0.824 | 0.128 | 0.112 | 0.106 |  | 0.107 | 1.15 | 1.03 | 1.14 | 1.04 | 0.994
15 | NCI-H1793 | 1.07 | 0.774 | 0.553 | 0.234 | 0.412 | 0.351 | 0.379 | 0.316 | 0.336 | 0.21 | 0.27 | 0.319 | 0.319 | 0.352 | 0.26 |  |  |  |  | 
16 | NCI-H1623 |  |  |  |  |  |  |  |  |  |  | 0.424 | 0.426 | 0.411 | 0.46 | 0.318 |  |  |  |  | 
17 | NCI-H2009 | 1.01 | 0.955 | 1.02 | 0.965 | 0.885 | 1.19 | 1.15 | 1.16 | 1.13 | 0.858 | 0.727 | 0.799 | 0.696 | 0.663 | 0.556 | 1.08 | 1.06 | 1.18 | 0.246 | 0.962
